Measurements reported in patent publication US20220241409A1, “WATER SOLUBLE ADJUVANT AND COMPOSITION CONTAINING SAME” (Sumitomo Dainippon Pharma Co., Ltd., priority 2019, published 2022).

Key:
[1] = tested on: HLA-A*02:01 transgenic mouse; assay: In vivo adjuvant activity, CTL induction with vaccine b (Montanide ISA 51 VG), IFNγ ELISPOT (Test 8); conditions: compound (32.5 ng or 325 ng per body) added to vaccine b versus no compound; twice, one week interval
Protocol: The in vivo adjuvant activity of the compounds prepared in Examples 2 and 3 was evaluated in the following procedure. To a cocktail vaccine comprising Compound of formula 4 prepared in Reference example 9 and Peptide SEQ ID No. 3 prepared in Reference example 3 with Montanide ISA51 VG (hereinafter, referred to as “vaccine b”) was added the compound prepared in Example 2 or 3 to prepare each vaccine. The vaccine was administered to a HLA-A*02:01 transgenic mouse, and the adjuvant activity of each vaccine was evaluated by the method of testing antigen-specific CTL induction.
Specifically, Compound of formula 4 and Peptide SEQ ID No. 3 were dissolved in DMSO, and then diluted with water for injection to concentrations of Compound of formula 4 of 3 mg/mL and Peptide SEQ ID No. 3 of 2.25 mg/mL. The diluted peptide solution was mixed and emulsified with an equal volume of Montanide ISA 51 VG (Seppic) to prepare vaccine b. Cocktail vaccine b was injected to mice intradermally at the tail base area in an amount for administering 300 μg of Compound of formula 4 per body and 225 μg of Peptide SEQ ID No. 3 per body. Or, in the step of preparing vaccine b, the compound prepared in Example 3 was added to the diluted peptide solution to prepare a vaccine, and the prepared vaccine was injected to mice intradermally at the tail base area in an amount for administering 300 μg of Compound of formula 4 per body, 225 μg of Peptide SEQ ID No. 3 per body, and 32.5 ng or 325 ng of the compound prepared in Example 3 per body. Or, in the step of preparing vaccine b, the compound prepared in Example 2 was added to the diluted peptide solution to prepare a vaccine, and the prepared vaccine was injected to mice intradermally at the tail base area in an amount for administering 300 μg of Compound of formula 4 per body, 225 μg of Peptide SEQ ID No. 3 per body, and 32.5 ng or 325 ng of the compound prepared in Example 2 per body. The administrations were done twice, which had one week interval. One week after the final administration, the mice were sacrificed with CO2 gas. Splenocytes were harvested from spleens removed from the mice. Like Test 6, Peptide (SEQ ID No. 1 or SEQ ID No. 5) was added to the splenocyte-containing ELISPOT plate, and the plate was incubated overnight at 37° C. under an atmosphere of 5% CO2 to re-stimulate the peptide in vitro. Then, after removal of the supernatant from the wells, stained spots on the ELISPOT plate were counted.

[2] = tested on: HLA-A*02:01 transgenic mouse; assay: Induction of antigen-specific effector memory CTL, flow cytometry (Test 14); type: in vivo; conditions: twice; for induction of antigen peptide-specific effector memory CTL (CD8+ tetramer+ CD127+ CD62L-): 325 ng per body in vaccine b compared with the vaccine without compound
Protocol: The activity of a vaccine comprising the compounds prepared in Examples 2 and 3 for inducing effector memory CTL was evaluated through the cell surface antigen expression analysis of CTL by flow cytometry.
Specifically, vaccine a prepared like Test 6 was injected to a HLA-A*02:01 transgenic mouse intradermally at the tail base area in an amount for administering 300 μg of Compound of formula 4 per body and 225 μg of Peptide SEQ ID No. 3 per body. The administrations were done twice, which had one week interval. Or, a vaccine prepared by adding the compound prepared in Example 3 to vaccine a was injected to the mouse intradermally at the tail base area in an amount for administering 300 μg of Compound of formula 4 per body, 225 μg of Peptide SEQ ID No. 3 per body, and 32.5 ng of the compound prepared in Example 3 per body. The administrations were done twice, which had one week interval. Or, vaccine b prepared like Test 8 was injected to the mouse intradermally at the tail base area in an amount for administering 300 μg of Compound of formula 4 per body and 225 μg of Peptide SEQ ID No. 3 per body. Or a vaccine prepared by adding the compound prepared in Example 3 to vaccine b was injected to the mouse intradermally at the tail base area in an amount for administering 300 μg of Compound of formula 4 per body, 225 μg of Peptide SEQ ID No. 3 per body, and 325 ng of the compound prepared in Example 3 per body. Or a vaccine prepared by adding the compound prepared in Example 2 to vaccine b was injected to the mouse intradermally at the tail base area in an amount for administering 300 μg of Compound of formula 4 per body, 225 μg of Peptide SEQ ID No. 3 per body, and 325 ng of the compound prepared in Example 2 per body. […] 1, a PE-Cy7-labeled anti-CD127 antibody, and a PerCP-Cy5.5-labeled anti-CD62L antibody, and analyzed for peptide-specific effector memory CTLs with a flow cytometer. The ratio of CD8-positive tetramer-positive CD127-positive CD62L-negative fraction in the lymphocyte fraction was calculated as peptide-specific effector memory CTL.

Row | Compound | CTL counts responsive to Peptide of SEQ ID No. 1 [1] | CTL counts responsive to Peptide of SEQ ID No. 5 [1] | induction of antigen peptide-specific effector memory CTL (CD8+ tetramer+ CD127+ CD62L-) [2] | induction of peptide-specific effector memory CTL (CD8+ tetramer+ CD127+ CD62L-) ([2]; 32.5 ng per body in vaccine a compared with vaccine a)
1 | CCCCOc1nc(N)c2[nH]c(=O)n(Cc3ccc(CN(C)CCOCCOCCOCCOCCO)nc3)c2n1 [Example 2, 6-amino-2-butoxy-9-{[6-(16-hydroxy-2-methyl-5,8,11,14-tetraoxa-2-azahexadecan-1-yl)pyridin-3-yl]methyl}-7,9-dihydro-8H-purin-8-one-trifluoroacetate] | more | more | high frequency | –
2 | CCCCOc1nc(N)c2[nH]c(=O)n(Cc3ccc(CN(C)CCOCCOCCOCCOCCO)cc3)c2n1 [Example 3, 6-amino-2-butoxy-9-{[4-(16-hydroxy-2-methyl-5,8,11,14-tetraoxa-2-azahexadecan-1-yl)phenyl]methyl}-7,9-dihydro-8H-purin-8-one] | more | more | high frequency | high frequency
